Like-named read-outs stand apart in the source and are kept apart here. Numbered stars: 1 amine (or outer) side, 2 acyl side, 3 side chain; on linkers, the order of the positions; unused ones are H or OH. Bridge positions count the residues as written; N and C are the ends. Square brackets hold non-standard residues; d marks the D form. Peptide text beside a SMILES is read from it. * marks the point of attachment. C20 diacid = O=C(O)CCCCCCCCCCCCCCCCCCC(=O)*; γGlu = O=C(O)[C@H](CCC(=O)[*:2])N[*:1]; NMeI = CC[C@H](C)[C@H](NC)C(=O)O; Sar = CNCC(=O)O
Legend:
[1] = molecular target: T1, human calcitonin receptor (hCTR2) (Homo sapiens, UniProt P30988); assay: hCTR2 assay: induction of cAMP (AlphaScreen cAMP Assay kit) in COS7 cells expressing hCTR2; format: cell-based
T1 construct: expressed in transfected cells
T1 sequence (P30988 25-474): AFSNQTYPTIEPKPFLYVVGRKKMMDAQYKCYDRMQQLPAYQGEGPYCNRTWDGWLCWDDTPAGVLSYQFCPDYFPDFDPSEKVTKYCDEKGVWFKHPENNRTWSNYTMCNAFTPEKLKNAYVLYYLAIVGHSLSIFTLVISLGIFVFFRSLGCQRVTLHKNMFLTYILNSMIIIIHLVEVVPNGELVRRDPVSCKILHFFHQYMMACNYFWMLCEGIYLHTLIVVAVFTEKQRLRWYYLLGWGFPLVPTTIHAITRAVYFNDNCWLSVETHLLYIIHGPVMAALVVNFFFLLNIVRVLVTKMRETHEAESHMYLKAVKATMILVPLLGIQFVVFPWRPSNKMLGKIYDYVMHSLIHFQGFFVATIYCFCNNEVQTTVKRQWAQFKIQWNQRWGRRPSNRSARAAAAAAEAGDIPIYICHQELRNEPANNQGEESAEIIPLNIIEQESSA
Summary of the method: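 Stable RAMP-naive COS7 clone expressing hCTR2 was stimulated with increasing peptide concentrations in Tyrode buffer (pH 7.4) with 100 µM IBMX and 0.1% casein for 15 min at 37° C. Cells were lysed and cAMP measured by AlphaScreen. EC50 and efficacy relative to pramlintide came from 4PL curve fits.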

[2] = Solubility assessment (turbidity absorbance at 325 nm); format: physicochemical; settings: stock 2 mg/ml diluted 1:1, ambient temperature (typically 25°C), n=1; for Solubility, Acetate buffer pH 4: 100 mM acetate buffer pH 4.0; for Solubility, Acetate buffer pH 5: 100 mM acetate buffer pH 5.0; for Solubility, Histidine buffer pH 6: 100 mM histidine buffer pH 6.0; for Solubility, Histidine buffer pH 7: 100 mM histidine buffer pH 7.0; for Solubility, Phosphate buffer pH 6: 100 mM phosphate buffer pH 6.0; for Solubility, Phosphate buffer pH 7: 100 mM phosphate buffer pH 7.0; for Solubility, Phosphate buffer pH 7.5: 100 mM phosphate buffer pH7.5
Summary of the method: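 Peptide stock (2 mg/ml, water pH 2.5) diluted 1:1 into 100 mM acetate (pH 4.0, 5.0), histidine (pH 6.0, 7.0) or phosphate (pH 6.0–7.5) buffer; absorbance at 325 nm read at about 25°C, n=1. A325 ≤ 0.02 taken as solubility ≥ 1 mg/ml.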

Row | Structure (SMILES) | EC50 ([1]; cAMP induction in COS7 cells expressing hCTR2, average of a minimum of 3 determinations, read-out: hCTR2 EC50) | Solubility, Acetate buffer pH 4 [2] | Solubility, Acetate buffer pH 5 [2] | Solubility, Histidine buffer pH 6 [2] | Solubility, Histidine buffer pH 7 [2] | Solubility, Phosphate buffer pH 6 [2] | Solubility, Phosphate buffer pH 7 [2] | Solubility, Phosphate buffer pH 7.5 [2] | EC50 [1]
1 | CC[C@H](C)[C@@H](C(=O)N[C@@H](CC(C)C)C(=O)N[C@@H](CO)C(=O)N[C@@H](CO)C(=O)N[C@H](C(=O)N[C@@H](CC(N)=O)C(=O)N[C@H](C(=O)NCC(=O)N[C@@H](CO)C(=O)N[C@@H](CC(N)=O)C(=O)N[C@H](C(=O)N1CCC[C@H]1C(N)=O)[C@@H](C)O)C(C)C)[C@@H](C)O)N(C)C(=O)CN(C)C(=O)[C@H](Cc1ccccc1)NC(=O)[C@H](CC(N)=O)NC(=O)[C@H](CC(N)=O)NC(=O)[C@H](CO)NC(=O)[C@H](CO)NC(=O)[C@H](Cc1c[nH]cn1)NC(=O)[C@H](CC(C)C)NC(=O)[C@H](Cc1ccccc1)NC(=O)[C@H](CCC(=O)O)NC(=O)[C@H](C)NC(=O)[C@H](CC(C)C)NC(=O)[C@H](CCCNC(=N)N)NC(=O)[C@H](CCC(N)=O)NC(=O)[C@@H](NC(=O)[C@H](C)NC(=O)[C@@H]1CSSC[C@H](NC(=O)[C@H](CCCNC(=N)N)NC(=O)CC[C@H](NC(=O)CCCCCCCCCCCCCCCCCCC(=O)O)C(=O)O)C(=O)N[C@@H](CC(N)=O)C(=O)N[C@@H]([C@@H](C)O)C(=O)N[C@@H](C)C(=O)N[C@@H]([C@@H](C)O)C(=O)N1)[C@@H](C)O [Compound 40, [19CD]-isoGlu-RC()NTATC()ATQRLAEFLHSSNNF-Gly(Me)-Ile(Me)-LSSTNVGSNTP-NH2] ({C20 diacid-γGlu}-RCNTATCATQRLAEFLHSSNNF[Sar][NMeI]LSSTNVGSNTP-NH2; disulfide 2-7) | 380 pM | SS (SS indicates solubility ≥ 1mg/ml) | SS (SS indicates solubility ≥ 1mg/ml) | SS (SS indicates solubility ≥ 1mg/ml) | SS (SS indicates solubility ≥ 1mg/ml) | SS (SS indicates solubility ≥ 1mg/ml) | SS (SS indicates solubility ≥ 1mg/ml) | SS (SS indicates solubility ≥ 1mg/ml) | –
2 | CC[C@H](C)[C@@H](C(=O)N[C@@H](CC(C)C)C(=O)N[C@@H](CO)C(=O)N[C@@H](CO)C(=O)N[C@H](C(=O)N[C@@H](CC(N)=O)C(=O)N[C@H](C(=O)NCC(=O)N[C@@H](CO)C(=O)N[C@@H](CC(N)=O)C(=O)N[C@H](C(=O)N1CCC[C@H]1C(N)=O)[C@@H](C)O)C(C)C)[C@@H](C)O)N(C)C(=O)[C@H](C)NC(=O)CN(C)C(=O)[C@H](Cc1ccccc1)NC(=O)[C@H](CC(N)=O)NC(=O)[C@H](CC(N)=O)NC(=O)[C@H](CO)NC(=O)[C@H](CO)NC(=O)[C@H](CC(C)C)NC(=O)[C@H](Cc1ccccc1)NC(=O)[C@H](CCC(=O)O)NC(=O)[C@H](C)NC(=O)[C@H](CC(C)C)NC(=O)[C@H](CCCNC(=N)N)NC(=O)[C@H](CCC(N)=O)NC(=O)[C@@H](NC(=O)[C@H](C)NC(=O)[C@@H]1CSSC[C@H](NC(=O)[C@H](CCCNC(=N)N)NC(=O)CC[C@H](NC(=O)CCCCCCCCCCCCCCCCCCC(=O)O)C(=O)O)C(=O)N[C@@H](CC(N)=O)C(=O)N[C@@H]([C@@H](C)O)C(=O)N[C@@H](C)C(=O)N[C@@H]([C@@H](C)O)C(=O)N1)[C@@H](C)O [Compound 41, [19CD]-isoGlu-RC()NTATC()ATQRLAEFLSSNNF-Gly(Me)-A-Ile(Me)-LSSTNVGSNTP-NH2] ({C20 diacid-γGlu}-RCNTATCATQRLAEFLSSNNF[Sar]A[NMeI]LSSTNVGSNTP-NH2; disulfide 2-7) | – | SS (SS indicates solubility ≥ 1mg/ml) | SS (SS indicates solubility ≥ 1mg/ml) | SS (SS indicates solubility ≥ 1mg/ml) | SS (SS indicates solubility ≥ 1mg/ml) | SS (SS indicates solubility ≥ 1mg/ml) | SS (SS indicates solubility ≥ 1mg/ml) | SS (SS indicates solubility ≥ 1mg/ml) | 71 pM
